Laboratory results taken from patent publication US20200339548A1, “PYRIMIDINE DERIVATIVES AND THEIR USE FOR THE TREATMENT OF CANCER” (Adorx Therapeutics Limited, priority 2017, published 2020).

Columns and labels:
Adenosine A2a receptor = molecular target: T1, Adenosine A2a receptor (Homo sapiens, UniProt P29274); test: Adenosine receptor TR-FRET binding assay, A2a; conditions: displacement of 100 nM CA200645, CHO cell membranes
T1 construct: expressed in transfected cells; host or cells: CHO cell membranes
Outline: (§1)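 Competition TR-FRET binding in CHO cell membranes expressing terbium-labelled human receptors, displacing fluorescent XAC (CA200645; 30 nM for A2b, 100 nM for A1, A2a, A3); 2 h at room temperature with saponin buffer, 1% DMSO. 665/620 nm ratio; non-specific with 10 μM XAC; Ki by Cheng–Prusoff from IC50.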

Adenosine A2b receptor = molecular target: T2, Adenosine A2b receptor (Homo sapiens, UniProt P29275); test: Adenosine receptor TR-FRET binding assay, A2b; conditions: Table 9, further testing; displacement of 30 nM CA200645, CHO cell membranes
T2 construct: expressed in transfected cells; host or cells: CHO cell membranes
T2 sequence (P29275 1-332): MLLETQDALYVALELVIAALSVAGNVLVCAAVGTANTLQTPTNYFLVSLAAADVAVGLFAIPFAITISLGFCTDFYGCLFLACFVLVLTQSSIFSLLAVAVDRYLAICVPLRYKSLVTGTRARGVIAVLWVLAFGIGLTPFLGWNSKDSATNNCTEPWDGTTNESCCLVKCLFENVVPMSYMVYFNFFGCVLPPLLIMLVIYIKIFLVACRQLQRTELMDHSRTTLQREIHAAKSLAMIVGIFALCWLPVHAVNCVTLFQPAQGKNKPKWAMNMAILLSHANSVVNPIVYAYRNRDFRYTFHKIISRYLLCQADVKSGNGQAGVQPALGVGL
Outline: as §1

Adenosine A1 receptor = molecular target: T3, Adenosine A1 receptor (Homo sapiens, UniProt P30542); test: Adenosine receptor TR-FRET binding assay, A1; conditions: Table 9, further testing; displacement of 100 nM CA200645, CHO cell membranes
T3 construct: expressed in transfected cells; host or cells: CHO cell membranes
T3 sequence (P30542 1-326): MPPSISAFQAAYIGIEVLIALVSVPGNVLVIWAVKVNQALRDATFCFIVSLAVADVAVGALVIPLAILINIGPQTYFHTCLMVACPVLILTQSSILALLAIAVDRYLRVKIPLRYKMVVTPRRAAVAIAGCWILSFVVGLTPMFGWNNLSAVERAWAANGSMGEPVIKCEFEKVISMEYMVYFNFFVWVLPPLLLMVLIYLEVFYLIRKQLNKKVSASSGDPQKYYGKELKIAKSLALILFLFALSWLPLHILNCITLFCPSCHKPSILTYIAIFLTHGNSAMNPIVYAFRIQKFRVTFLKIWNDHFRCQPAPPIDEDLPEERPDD
Outline: as §1

Adenosine A3 receptor = molecular target: T4, Adenosine A3 receptor (Homo sapiens, UniProt P0DMS8); test: Adenosine receptor TR-FRET binding assay, A3; conditions: Table 9, further testing; displacement of 100 nM CA200645, CHO cell membranes; read-out: A3 Ki
T4 construct: expressed in transfected cells; host or cells: CHO cell membranes
T4 sequence (P0DMS8 1-318): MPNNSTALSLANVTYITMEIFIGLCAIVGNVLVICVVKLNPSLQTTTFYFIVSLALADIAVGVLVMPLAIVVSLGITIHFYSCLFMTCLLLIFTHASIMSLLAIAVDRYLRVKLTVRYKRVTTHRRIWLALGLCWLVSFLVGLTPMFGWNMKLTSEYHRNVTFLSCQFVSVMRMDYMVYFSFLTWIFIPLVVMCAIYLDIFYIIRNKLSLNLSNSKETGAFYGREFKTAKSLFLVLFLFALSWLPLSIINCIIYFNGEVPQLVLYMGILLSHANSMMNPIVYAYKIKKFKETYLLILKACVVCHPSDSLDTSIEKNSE
Outline: as §1

Human PBMCs = test: CD3/CD28 stimulated IL-2 release NECA reversal assay; assay type: cell-based; conditions: Homo sapiens, PBMC, read-out: IL-2 release NECA reversal IC50 (nM), 1 uM NECA, 24 hours
Procedure: Blood is drawn from healthy volunteers using sodium citrate as the anticoagulant (0.3% final concentration). […] 50 μl diluted compound mix is added to the cells, to obtain final concentrations of 1 ug/ml CD28 antibody, 1 uM NECA and 0.003-10 μM adenosine receptor antagonist. Assay plates are incubated for 24 hours at 37° C. in a humidified incubator.

T1 sequence (P29274 whole entry): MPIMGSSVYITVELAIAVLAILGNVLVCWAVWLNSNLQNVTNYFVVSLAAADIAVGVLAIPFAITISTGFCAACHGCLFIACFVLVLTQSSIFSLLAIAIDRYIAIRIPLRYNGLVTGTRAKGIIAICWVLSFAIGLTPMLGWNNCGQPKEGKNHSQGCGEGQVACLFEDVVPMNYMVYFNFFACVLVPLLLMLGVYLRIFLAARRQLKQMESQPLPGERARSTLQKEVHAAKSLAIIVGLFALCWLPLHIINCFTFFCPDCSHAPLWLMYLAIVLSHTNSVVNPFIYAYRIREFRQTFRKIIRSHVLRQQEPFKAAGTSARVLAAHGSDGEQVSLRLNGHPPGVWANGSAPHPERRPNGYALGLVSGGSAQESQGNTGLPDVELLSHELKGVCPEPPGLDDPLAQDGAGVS

Row | SMILES | Ki (Adenosine A2a receptor; Table 8, Cheng and Prusoff) [nM] | Ki (Adenosine A2a receptor; Table 9, further testing) [nM] | Ki (Adenosine A2b receptor) [nM] | Ki (Adenosine A1 receptor) [nM] | Ki (Adenosine A3 receptor) [nM] | IC50 (Human PBMCs) [nM]
1 | Nc1nc(-c2ccco2)ncc1C(=O)NCc1cccc2cccnc12 [Example 5.25, 4-Amino-2-(2-furyl)-N-(8-quinolylmethyl) pyrimidine-5-carboxamide] | 1.2 | 0.83 | 1470 | 706 | 506 | 15
2 | Nc1nc(-c2ccco2)ncc1C(=O)NCc1cccc(Cl)c1 [Example 5.12, 4-Amino-N-[(3-chlorophenyl)methyl]-2-(2-furyl)pyrimidine-5-carboxamide] | 4.1 | 3.9 | 1570 | 962 | 1160 | 345
3 | Cc1cccnc1CNC(=O)c1nnc(-c2cccc(F)c2)nc1N [Example 7, 5-Amino-3-(3-fluorophenyl)-N-[(3-methyl-2-pyridyl)methyl]-1,2,4-triazine-6-carboxamide] | 11 | 12 | 383 | 42 | 13 | 830
4 | Cc1cccnc1CNC(=O)c1cnc(-c2cccc(C#N)c2)nc1N [Example 12, 4-Amino-2-(3-cyanophenyl)-N-[(3-methyl-2-pyridyl)methyl]pyrimidine-5-carboxamide] | 27 | 27 | 1560 | 17 | 1030 | 1200
5 | COc1cccc(F)c1CNC(=O)c1cnc(-c2cccc(F)c2)nc1N [Example 5.2, 4-Amino-N-[(2-fluoro-6-methoxy-phenyl)methyl]-2-(3-fluorophenyl)pyrimidine-5-carboxamide] | 20 | 20 | 113 | 66 |  | 1920
6 | Cc1cccnc1CNC(=O)c1cnc(-c2cccc(F)c2)nc1N [Example 4.3, 4-Amino-2-(3-fluorophenyl)-N-[(3-methyl-2-pyridyl)methyl]pyrimidine-5-carboxamide] | 12 | 12 | 689 | 49 | 54 | 705
7 | Cc1cccnc1CNC(=O)c1nnc(-c2ccco2)nc1N [Example 2, 5-Amino-3-(2-furyl)-N-[(3-methyl-2-pyridyl)methyl]-1,2,4-triazine-6-carboxamide] | 0.9 | 0.79 | 95 | 318 | 50 | 408
8 | Nc1nc(-c2ccco2)ncc1C(=O)NC1CCc2ccccc21 (stereo not drawn) [Example 5.23, 4-Amino-2-(2-furyl)-N-indan-1-yl-pyrimidine-5-carboxamide] | 10 | 10 |  | 4750 |  | 381
9 | Cc1cccnc1CNC(=O)c1nnc(-c2cccc(C#N)c2)nc1N [Example 17, 5-Amino-3-(3-cyanophenyl)-N-[(3-methyl-2-pyridyl)methyl]-1,2,4-triazine-6-carboxamide] | 3.8 | 2.4 | 405 | 767 | 442 | 309
10 | Nc1nc(-c2ccco2)ncc1C(=O)NCc1ccccc1F [Example 5.18, 4-Amino-N-[(2-fluorophenyl)methyl]-2-(2-furyl)pyrimidine-5-carboxamide] | 3.8 | 3.3 | 215 | 1760 | 1940 | 230
11 | Nc1nc(-c2ccco2)ncc1C(=O)NCc1c(Cl)cccc1Cl [Example 5.16, 4-Amino-N-[(2,6-dichlorophenyl)methyl]-2-(2-furyl)pyrimidine-5-carboxamide] | 0.93 | 0.64 | 297 | 1350 |  | 102
12 | CCOc1cccc(F)c1CNC(=O)c1cnc(-c2cccc(F)c2)nc1N [Example 5.3, 4-Amino-N-[(2-ethoxy-6-fluoro-phenyl)methyl]-2-(3-fluorophenyl)pyrimidine-5-carboxamide] | 20 | 20 | 341 |  |  | 1540
13 | Nc1nc(-c2ccco2)ncc1C(=O)NC1Cc2ccccc2C1 [Example 5.24, 4-Amino-2-(2-furyl)-N-indan-2-yl-pyrimidine-5-carboxamide] | 2.4 | 2.6 | 1600 | 1270 |  | 364
14 | Nc1nc(-c2ccco2)ncc1C(=O)NCc1cccc2c1OCO2 [Example 5.52, 4-Amino-N-(1,3-benzodioxol-4-ylmethyl)-2-(2-furyl)pyrimidine-5-carboxamide] |  | 11 | 5130 | 4790 | 3090 | 
15 | CCOC(=O)c1nnc(-c2ccco2)nc1N [Example 1, Ethyl 5-amino-3-(2-furyl)-1,2,4-triazine-6-carboxylate] | 60 | 61 | 382 | 314 | 101 | 

Second part, led by results:

Row | Ki (Adenosine A2a receptor; Table 8, Cheng and Prusoff) [nM] | Ki (Adenosine A2a receptor; Table 9, further testing) [nM] | Ki (Adenosine A2b receptor) [nM] | Ki (Adenosine A1 receptor) [nM] | Ki (Adenosine A3 receptor) [nM] | SMILES | IC50 (Human PBMCs) [nM]
16 | 4.7 | 3.3 | 415 | 38 | 105 | Nc1nc(-c2cccc(F)c2)ncc1C(=O)NCc1cccc2cccnc12 [Example 10.13, 4-Amino-2-(3-fluorophenyl)-N-(8-quinolylmethyl)pyrimidine-5-carboxamide] | 926
17 |  | 0.23 | 495 | 176 | 149 | COc1nc(-c2ccco2)nc(N)c1C(=O)NCc1ncccc1C(F)(F)F [Example 18.1, 4-Amino-2-(2-furyl)-6-methoxy-N-[[3-(trifluoromethyl)-2-pyridyl]methyl]pyrimidine-5-carboxamide] | 28
18 | 13 | 13 | 54 | 93 | 421 | Nc1nc(-c2cccc(F)c2)ncc1C(=O)NCc1ccccc1O [Example 10.1, 4-Amino-2-(3-fluorophenyl)-N-[(2-hydroxyphenyl)methyl]pyrimidine-5-carboxamide] | 216
19 | 34 | 34 | 1280 | 90 | 2510 | CC(C)n1ncnc1CNC(=O)c1cnc(-c2cccc(F)c2)nc1N [Example 10.15, 4-Amino-2-(3-fluorophenyl)-N-[(2-isopropyl-1,2,4-triazol-3-yl)methyl]pyrimidine-5-carboxamide] | 1290
20 | 42 | 42 | 1140 | 159 | 609 | CCn1ccnc1CNC(=O)c1cnc(-c2cccc(F)c2)nc1N [Example 10.14, 4-Amino-N-[(1-ethylimidazol-2-yl)methyl]-2-(3-fluorophenyl)pyrimidine-5-carboxamide] | 1240
21 |  | 8.1 |  | 145 | 1610 | Cn1ncnc1CNC(=O)c1c(N)nc(-c2cccc(C#N)c2)nc1OCCF [Example 24.7, 4-Amino-2-(3-cyanophenyl)-6-(2-fluoroethoxy)-N-[(2-methyl-1,2,4-triazol-3-yl)methyl]pyrimidine-5-carboxamide] | 212
22 | 1.2 | 0.71 | 50 | 787 |  | Nc1nc(-c2ccco2)ncc1C(=O)NCc1ccccc1O [Example 11.2, 4-amino-2-(2-furyl)-N-[(2-hydroxyphenyl)methyl]pyrimidine-5-carboxamide] | 71
23 | 959 | 959 | 6060 | 3800 | 1820 | Nc1nc(-c2cccc(F)c2)ncc1C(=O)NCc1ccc(F)cc1 [Example 10.4, 4-Amino-2-(3-fluorophenyl)-N-[(4-fluorophenyl)methyl]pyrimidine-5-carboxamide] | 
